Laboratory results: paper PMC8079033, “Design, synthesis, anticancer evaluation, and molecular modelling studies of novel tolmetin derivatives as potential VEGFR-2 inhibitors and apoptosis inducers” (Journal of Enzyme Inhibition and Medicinal Chemistry, 2021)

Legend:
[1] = tested on: HCT-116; test: NCI 60-cell line one-dose antiproliferative screen (SRB); format: cell-based; settings: Homo sapiens, read-out: growth inhibition % (GI%)
Experimental: (§1) Anticancer activity screening of the newly synthesised compounds was measured in vitro utilising 60 different human tumour cell lines provided by US National Cancer Institute according to previously reported standard procedure[41–43] as follows: Cells are inoculated into 96-well microtiter plates in 100 ml. After cell inoculation, the microtiter plates are incubated at 37 °C, 5% CO2, 95% air, and 100% relative humidity for 24 h prior to addition of experimental compounds. After 24 h, two plates of each cell line are fixed in situ with TCA, to represent a measurement of the cell population for each cell line at the time of compound addition (Tz). Experimental compounds are solubilised in dimethyl sulfoxide at 400-fold the desired final maximum test concentration and stored frozen prior to use. At the time of compound addition, an aliquot of frozen concentrate is thawed and diluted to twice the desired final maximum test concentration with a complete medium containing […] gentamicin. Aliquots of […] of the compounds dilutions are added to the appropriate microtiter wells already containing 100 ml of medium, resulting in the required final compound concentration. Following compound addition, the plates are incubated for an additional 48 h at 37 °C, 5% CO2, 95% air, and 100% relative humidity. For adherent cells, the assay is terminated by the addition of cold trichloroacetic acid (TCA). Cells are fixed in situ by the gentle addition of 50 ml of cold 50% (w/v) TCA (final concentration, 10% TCA) and incubated for […] at 4 °C. The supernatant is discarded, and the plates are washed five times with tap water and air-dried. Sulforhodamine B (SRB) solution (100 ml) at 0.4% (w/v) in 1% acetic acid is added to each well, and plates are incubated for 10 min at room temperature. After staining, the unbound dye is removed by washing five times with 1% acetic acid and the plates are air-dried. The bound stain is subsequently solubilised with a 10 mM trizma base, and the absorbance is read on an automated plate reader at a wavelength of 515 nm. For suspension cells, the methodology is the same except that the assay is terminated by fixing settled cells at the bottom of the wells by gently adding 50 ml of 80% TCA (final concentration, 16% TCA). Using the absorbance measurements [time zero, (Tz), control growth, (C), and test growth in the presence of compound (Ti)], the percentage growth is calculated for each compound. The One-dose data are reported as a mean graph of the percent growth of treated cells. The reported number is growth relative to the no-compound control, and relative to the time zero number of cells. This allows the detection of both growth inhibition and lethality.
(§2) Fifteen newly synthesised compounds were tested for their in vitro antiproliferative activity by the National Cancer Institute (NCI), Maryland, USA[50], under the Developmental Therapeutic Program (DTP)[41]^,[43]^,[51]^,[52]. The tested compounds were evaluated at a concentration of 10 µM on a panel of 60 tumour cell lines representing leukaemia and non-small cell lung, colon, CNS, melanoma, ovarian, renal, prostate, and breast cancers. The antiproliferative activity was presented by the NCI as percent growth of the treated cells and is presented in Table 1 as growth inhibition percentage (GI%) achieved by the tested compounds.

[2] = tested on: HOP-62; test: as above; format: cell-based; settings: Homo sapiens, read-out: growth inhibition % (GI%)
Experimental: as §1, §2

[3] = tested on: NCI-H226; test: as above; format: cell-based; settings: Homo sapiens, read-out: growth inhibition % (GI%)
Experimental: as §1, §2

[4] = tested on: UACC-62; test: as above; format: cell-based; settings: Homo sapiens, read-out: growth inhibition % (GI%)
Experimental: as §1, §2

[5] = tested on: ACHN; test: as above; format: cell-based; settings: Homo sapiens, read-out: growth inhibition % (GI%)
Experimental: as §1, §2

[6] = tested on: TK-10; test: as above; format: cell-based; settings: Homo sapiens, read-out: growth inhibition % (GI%)
Experimental: as §1, §2

[7] = tested on: LOX IMVI; test: as above; format: cell-based; settings: Homo sapiens, read-out: growth inhibition % (GI%)
Experimental: as §1, §2

[8] = tested on: SF-539; test: as above; format: cell-based; settings: Homo sapiens, read-out: growth inhibition % (GI%)
Experimental: as §1, §2

[9] = tested on: T-47D; test: as above; format: cell-based; settings: Homo sapiens, T47D, read-out: growth inhibition % (GI%)
Experimental: as §1, §2

[10] = tested on: A498; test: as above; format: cell-based; settings: Homo sapiens, read-out: growth inhibition % (GI%)
Experimental: as §1, §2

[11] = tested on: U251; test: as above; format: cell-based; settings: Homo sapiens, U-251, read-out: growth inhibition % (GI%)
Experimental: as §1, §2

[12] = tested on: EKVX; test: as above; format: cell-based; settings: Homo sapiens, read-out: growth inhibition % (GI%)
Experimental: as §1, §2

[13] = tested on: A549/ATCC; test: as above; format: cell-based; settings: Homo sapiens, read-out: growth inhibition % (GI%)
Experimental: as §1, §2

[14] = tested on: HCT-15; test: as above; format: cell-based; settings: Homo sapiens, read-out: growth inhibition % (GI%)
Experimental: as §1, §2

[15] = tested on: OVCAR-4; test: as above; format: cell-based; settings: Homo sapiens, read-out: growth inhibition % (GI%)
Experimental: as §1, §2

[16] = tested on: SNB-19; test: as above; format: cell-based; settings: Homo sapiens, read-out: growth inhibition % (GI%)
Experimental: as §1, §2

[17] = tested on: MDA-MB-468; test: as above; format: cell-based; settings: Homo sapiens, read-out: growth inhibition % (GI%)
Experimental: as §1, §2

[18] = tested on: MCF7; test: as above; format: cell-based; settings: Homo sapiens, read-out: growth inhibition % (GI%)
Experimental: as §1, §2

[19] = tested on: CAKI-1; test: as above; format: cell-based; settings: Homo sapiens, read-out: growth inhibition % (GI%)
Experimental: as §1, §2

[20] = tested on: MDA-MB-231/ATCC; test: as above; format: cell-based; settings: Homo sapiens, read-out: growth inhibition % (GI%)
Experimental: as §1, §2

[21] = tested on: 786-0; test: as above; format: cell-based; settings: Homo sapiens, read-out: growth inhibition % (GI%)
Experimental: as §1, §2

[22] = tested on: OVCAR-8; test: as above; format: cell-based; settings: Homo sapiens, read-out: growth inhibition % (GI%)
Experimental: as §1, §2

[23] = tested on: SR; test: as above; format: cell-based; settings: Homo sapiens, read-out: growth inhibition % (GI%)
Experimental: as §1, §2

[24] = tested on: SF-268; test: as above; format: cell-based; settings: Homo sapiens, read-out: growth inhibition % (GI%)
Experimental: as §1, §2

[25] = tested on: NCI-H522; test: as above; format: cell-based; settings: Homo sapiens, read-out: growth inhibition % (GI%)
Experimental: as §1, §2

[26] = tested on: UO-31; test: as above; format: cell-based; settings: Homo sapiens, read-out: growth inhibition % (GI%)
Experimental: as §1, §2

[27] = tested on: SN 12 C; test: as above; format: cell-based; settings: Homo sapiens, SN12C, read-out: growth inhibition % (GI%)
Experimental: as §1, §2

[28] = tested on: HS 578 T; test: as above; format: cell-based; settings: Homo sapiens, read-out: growth inhibition % (GI%)
Experimental: as §1, §2

[29] = tested on: IGROV1; test: as above; format: cell-based; settings: Homo sapiens, IGROV-1, read-out: growth inhibition % (GI%)
Experimental: as §1, §2

[30] = tested on: SK-MEL-5; test: as above; format: cell-based; settings: Homo sapiens, read-out: growth inhibition % (GI%)
Experimental: as §1, §2

[31] = tested on: M14; test: as above; format: cell-based; settings: Homo sapiens, read-out: growth inhibition % (GI%)
Experimental: as §1, §2

[32] = tested on: SF-295; test: as above; format: cell-based; settings: Homo sapiens, read-out: growth inhibition % (GI%)
Experimental: as §1, §2

[33] = tested on: NCI-H23; test: as above; format: cell-based; settings: Homo sapiens, read-out: growth inhibition % (GI%)
Experimental: as §1, §2

[34] = tested on: K-562; test: as above; format: cell-based; settings: Homo sapiens, K562, read-out: growth inhibition % (GI%)
Experimental: as §1, §2

[35] = tested on: BT-5; test: as above; format: cell-based; settings: Homo sapiens, read-out: growth inhibition % (GI%)
Experimental: as §1, §2

[36] = tested on: SW-620; test: as above; format: cell-based; settings: Homo sapiens, read-out: growth inhibition % (GI%)
Experimental: as §1, §2

[37] = tested on: MDA-MB-435; test: as above; format: cell-based; settings: Homo sapiens, read-out: growth inhibition % (GI%)
Experimental: as §1, §2

[38] = tested on: OVCAR-5; test: as above; format: cell-based; settings: Homo sapiens, read-out: growth inhibition % (GI%)
Experimental: as §1, §2

[39] = tested on: HL-60 (TB); test: as above; format: cell-based; settings: Homo sapiens, read-out: growth inhibition % (GI%)
Experimental: as §1, §2

[40] = tested on: SNB-75; test: as above; format: cell-based; settings: Homo sapiens, read-out: growth inhibition % (GI%)
Experimental: as §1, §2

[41] = tested on: UACC-257; test: as above; format: cell-based; settings: Homo sapiens, read-out: growth inhibition % (GI%)
Experimental: as §1, §2

[42] = tested on: panel of 60 tumour cell lines; test: NCI 60-cell line one-dose screen, summary over the panel; format: cell-based, human; settings: 10 µM
Experimental: Anticancer activity screening of the newly synthesised compounds was measured in vitro utilising 60 different human tumour cell lines provided by US National Cancer Institute according to previously reported standard procedure[41–43] as follows: Cells are inoculated into 96-well microtiter plates in 100 ml. After cell inoculation, the microtiter plates are incubated at 37 °C, 5% CO2, 95% air, and 100% relative humidity for 24 h prior to addition of experimental compounds. After 24 h, two plates of each cell line are fixed in situ with TCA, to represent a measurement of the cell population for each cell line at the time of compound addition (Tz). Experimental compounds are solubilised in dimethyl sulfoxide at 400-fold the desired final maximum test concentration and stored frozen prior to use. At the time of compound addition, an aliquot of frozen concentrate is thawed and diluted to twice the desired final maximum test concentration with a complete medium containing […] gentamicin. Aliquots of […] of the compounds dilutions are added to the appropriate microtiter wells already containing 100 ml of medium, resulting in the required final compound concentration. Following compound addition, the plates are incubated for an additional 48 h at 37 °C, 5% CO2, 95% air, and 100% relative humidity. […] The bound stain is subsequently solubilised with a 10 mM trizma base, and the absorbance is read on an automated plate reader at a wavelength of 515 nm. […] Using the absorbance measurements [time zero, (Tz), control growth, (C), and test growth in the presence of compound (Ti)], the percentage growth is calculated for each compound. […]
as §2, with “The antiproliferative activity was presented by the NCI as percent growth of the treated cells and is presented in Table 1 as growth inhibition percentage (GI%) achieved by the tested compounds.” left out

## Cc1ccc(C(=O)c2ccc(CC(=O)NN=Cc3ccc4c(c3)OCO4)n2C)cc1 [Compound 5d, N′-(Benzo[d][1,3]dioxol-5-ylmethylene)-2–(1-methyl-5–(4-methylbenzoyl)-1H-pyrrol-2-yl)acetohydrazide]
[1]
  inhibition at 10 µM: < 10%
[2]
  inhibition at 10 µM: < 10%
[3]
  inhibition at 10 µM: < 10%
[4]
  inhibition at 10 µM: < 10%
[5]
  inhibition at 10 µM: < 10%
[6]
  inhibition at 10 µM: < 10%
[7]
  inhibition at 10 µM: < 10%
[8]
  inhibition at 10 µM: < 10%
[9]
  inhibition at 10 µM: 15.6%
[10]
  inhibition at 10 µM: 13.1%
[11]
  inhibition at 10 µM: < 10%
[12]
  inhibition at 10 µM: < 10%
[13]
  inhibition at 10 µM: < 10%
[14]
  inhibition at 10 µM: < 10%
[15]
  inhibition at 10 µM: < 10%
[16]
  inhibition at 10 µM: < 10%
[17]
  inhibition at 10 µM: < 10%
[18]
  inhibition at 10 µM: < 10%
[19]
  inhibition at 10 µM: < 10%
[20]
  inhibition at 10 µM: < 10%
[21]
  inhibition at 10 µM: < 10%
[22]
  inhibition at 10 µM: < 10%
[23]
  inhibition at 10 µM: < 10%
[24]
  inhibition at 10 µM: < 10%
[25]
  inhibition at 10 µM: 12.4%
[26]
  inhibition at 10 µM: 22.2%
[27]
  inhibition at 10 µM: < 10%
[28]
  inhibition at 10 µM: < 10%
[29]
  inhibition at 10 µM: < 10%
[30]
  inhibition at 10 µM: < 10%
[31]
  inhibition at 10 µM: < 10%
[32]
  inhibition at 10 µM: < 10%
[33]
  inhibition at 10 µM: < 10%
[34]
  inhibition at 10 µM: < 10%
[35]
  inhibition at 10 µM: < 10%
[36]
  inhibition at 10 µM: < 10%
[37]
  inhibition at 10 µM: < 10%
[38]
  inhibition at 10 µM: < 10%
[39]
  inhibition at 10 µM: < 10%
[40]
  inhibition at 10 µM: < 10%
[41]
  inhibition at 10 µM: < 10%
[42]
  antiproliferative activity over the panel (in words): inactive against most investigated cell lines
